Data on two substances can be found in US20200102349A1, “PEPTIDE REAGENTS AND METHODS FOR DETECTION AND TARGETING OF DYSPLASIA, EARLY CANCER AND CANCER” (THE REGENTS OF THE UNIVERSITY OF MICHIGAN, priority 2014, published 2020).

The subject of data set [1] is vascular endothelial growth factor A (VEGFA). As to conditions: n=14 BE patients, topical and systemic; cited from earlier work.
Data set [2] is described as follows: Pharmacology/toxicology study in rats, single dose oral gavage. On Blood tests (days 2 and 15): key: NAD: No abnormalities detected. On Clinical signs: key: NAD: No abnormalities detected. On Necropsy (days 2 and 15): key: NAD: No abnormalities detected. On Observe (morbidity, mortality, injury, body weights, food and water consumption): key: NAD: No abnormalities detected. On Urinalysis: key: NAD: No abnormalities detected. It is filed as in vivo. Conditions: for Blood tests (days 2 and 15) / Clinical signs / Necropsy (days 2 and 15) / Observe (morbidity, mortality, injury, body weights, food and water consumption) / Urinalysis: oral gavage. As for the experimental part:
A rigorous pharmacology/toxicology study was performed in animals (MPI Research) for each peptide to provide pre-clinical evidence for safety. A total of 24 male and 24 female rats (CD®[Crl:CD® (SD)] (Charles River) were used in each study. At 8 weeks of age, the animals were randomly assigned to 4 groups, including 3 treatment and 1 control. Dose levels of 0.0086, 0.026, and 0.86 mg/kg were used for QRH*-Cy5, and 0.186, 0.32, and 1.08 mg/kg were used for KSP*-IRDye800. The control group received 10 mL/kg of PBS as vehicle. The vehicle and test articles were administered by single dose oral gavage. Clinical signs, including morbidity, mortality, and injury, were monitored twice daily. Laboratory tests and necropsy were evaluated in 3 animals/sex/dose on days 2 and 15.

The nature of data set [3]: Phase 1 first-in-human safety study, oral administration. The format is in vivo. As to conditions: n=25 human subjects, 0.5 mg or 1.2 mg. As for the experimental part: A first-in-human study was performed to establish clinical evidence of safety for each peptide. An Investigational New Drug (IND) application (sponsor DKT) was prepared, and submitted for review to the US Food and Drug Administration (FDA). […] The study protocols were reviewed and approved by the Institutional Review Board (IRB) at the University of Michigan. These studies, including NCT02574858 (QRH*-Cy5) and NCT03161418 (KSP*-IRDye800), were registered online at ClinicalTrials.gov. A total of n=25 subjects was recruited for each study. All enrolled patients provided written informed consent. A dose escalation study was performed. The first n=3 subjects were administered 0.5 mg of peptide reconstituted in 5 mL of normal saline (0.9%) per oral. […] An electrocardiogram (EKG) was performed and vital signs were monitored. […] No images were collected during the safety study.

A short description of data set [4]: Stability of lyophilized cGMP peptides on storage. The format is physicochemical. As to conditions: KSP*-IRDye800 lyophilized, −20° C.; for Molecular: molecular weight by Q-TOF. The source says: QRHKPRE (SEQ ID NO: 1) was labeled with Cy5 via a GGGSK (SEQ ID NO: 18) linker to prevent steric hindrance. This sequence was selected using phage display methods for specific binding to EGFR.^22 KSPNPRF (SEQ ID NO: 26) was labeled with IRDye800 via a GGGSC (SEQ ID NO: 27) linker, hereafter KSP*-IRDye800. This sequence was identified using a structural model for specific binding to ErbB2.^23 The fluorophores used were chosen to minimize spectral overlap between absorbance and emission. QRH*-Cy5 and KSP*-IRDye800 were synthesized using current good manufacturing practices (cGMP) methods. Peptide stability was monitored by visual appearance, purity (HPLC), and molecular weight over the duration of the study.

Data set [5] has as its target T1, ErbB2 (Homo sapiens, UniProt P04626).
T1 construct: topically administered into the distal esophagus using a standard spray catheter; from tissue; host or cells: distal esophagus mucosa of Barrett's patients, in vivo
Kind of data set: Multiplexed in vivo imaging of distal esophagus in patients, KSP*-IRDye800 channel. As for the experimental part:
A multi-modal scanning fiber endoscope (mmSFE) was designed to collect fluorescence and reflectance concurrently. A custom fiber-coupled multi-laser system (SpectraTEC, Blue Sky Research) provides illumination at λex=638 and 785 nm concurrently through a single mode fiber (SMF) to excite QRH*-Cy5 and KSP*-IRDye800, respectively. A 0.4 mm diameter metal coated piezo tube actuator (Nagamine) generates a spiral scan pattern at an average maximum deflection angle of about 70°. Large core (500 μm diameter) multi-mode fibers (MMF) with high numerical aperture (NA=0.6, Mitsubishi Rayon) are arranged around the instrument periphery to maximize light collection.^38 The diameter and rigid length of the distal tip were designed to pass forward easily through the working channel of a standard upper endoscope.
The optics used to separate and collect fluorescence from each peptide was contained within the base station (VerAvanti). A notch filter (NF, # NF03-785E-25, Semrock) was used to attenuate the excitation beam at λ=785 nm. Reflectance at λ=[…] was deflected by a dichroic beam splitter (BS1, # FF652-Di02, Semrock) to a multi-pixel photon counter (MPPC1, SiPM, Hamamatsu) for detection. Fluorescence from QRH*-Cy5 was deflected by a second beam splitter (BS2, # Di02-R785, Semrock) centered at λ=785 nm through a bandpass filter (BPF, FF01-697/58, Semrock) that transmits between 668-726 nm for detection by MPPC2. Fluorescence from KSP*-IRDye800 passes through BS2 and long pass filter (LPF, # BLP01-785R, Semrock) with cutoff at λ=805 nm and is detected by MPPC3. Kinematic filter cubes (DFM1/M, ThorLabs) were used to mount and align the optics.
Consecutive patients referred to Michigan Medicine for either evaluation or therapy of Barrett's neoplasia (LGD/HGD/EAC) were recruited. Inclusion criteria included: 1) history of Barrett's neoplasia, 2) medically able to tolerate upper endoscopy, and 3) age over 18. Exclusion criteria included: 1) history of esophagectomy and 2) on active chemotherapy or radiation protocol. The multiplexed imaging study was approved by the University of Michigan IRB, and was registered online at ClinicalTrials.gov (NCT03589443). […] Separate channels were used to record fluorescence images from QRH*-Cy5 and KSP*-IRDye800 and from reflectance at λ=638 nm. The conventional white light illumination was shut off during collection of fluorescence images to prevent interference. […]
Video streams with greater than 30 consecutive images (1 second) that had negligible artifacts, including debris, bubbles, pooling, and conventional white light, were extracted from the original recordings. Single frames from the target regions with high contrast and minimum motion blur and distortion were selected for intensity quantification. The frames were separated into two fluorescence channels and a co-registered reflectance image. Target/background (T/B) ratios were calculated for each fluorescence image as follows. […] Fluorescence regions with high intensity were segmented using the Chan-Vese algorithm,^39 where an active contour model was evolved iteratively to minimize the energy function, Eq. 1, defined by the weighted sum of the 1) boundary length, 2) area, and variance of intensity 3) inside and 4) outside of the segmented region. […]

Data set [6] concerns Barrett's neoplasia (HGD/EAC). Kind of data set: Multiplexed in vivo imaging of distal esophagus in patients, both channels combined. On the set-up: species or system human. Conditions: topical, 5 minutes incubation. As for the experimental part:
A multi-modal scanning fiber endoscope (mmSFE) was designed to collect fluorescence and reflectance concurrently. A custom fiber-coupled multi-laser system (SpectraTEC, Blue Sky Research) provides illumination at λex=638 and 785 nm concurrently through a single mode fiber (SMF) to excite QRH*-Cy5 and KSP*-IRDye800, respectively. A 0.4 mm diameter metal coated piezo tube actuator (Nagamine) generates a spiral scan pattern at an average maximum deflection angle of about 70°. […]
The optics used to separate and collect fluorescence from each peptide was contained within the base station (VerAvanti). […] Fluorescence from QRH*-Cy5 was deflected by a second beam splitter (BS2, # Di02-R785, Semrock) centered at λ=785 nm through a bandpass filter (BPF, FF01-697/58, Semrock) that transmits between 668-726 nm for detection by MPPC2. Fluorescence from KSP*-IRDye800 passes through BS2 and long pass filter (LPF, # BLP01-785R, Semrock) with cutoff at λ=805 nm and is detected by MPPC3. […]
Consecutive patients referred to Michigan Medicine for either evaluation or therapy of Barrett's neoplasia (LGD/HGD/EAC) were recruited. […] Separate channels were used to record fluorescence images from QRH*-Cy5 and KSP*-IRDye800 and from reflectance at λ=638 nm. The conventional white light illumination was shut off during collection of fluorescence images to prevent interference. […]

Sequence of vascular endothelial growth factor A (VEGFA) (P15692 207-311 limits assumed): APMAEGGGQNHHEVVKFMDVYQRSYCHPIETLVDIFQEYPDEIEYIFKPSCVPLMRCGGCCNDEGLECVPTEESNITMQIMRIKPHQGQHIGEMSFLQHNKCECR

Take “Bevacizumab: antibody specific for VEGFA, repurposed for diagnostic imaging by labeling with IRDye800”: the “increase in detection of early lesions using fluorescence compared with HD-WLE and NBI” value in data set [1] is “about 33%”.
As to “Lys^1-Ser^2-Pro^3-Asn^4-Pro^5-Arg^6-Phe^7-Gly^8-Gly^9-Gly^10-Ser^11-Cys^12(IRDye800) [KSP*-IRDye800]”, the “Blood tests (days 2 and 15)” value in data set [2] (KSP*-IRDye800 0.186 mg/kg), in data set [2] (KSP*-IRDye800 0.32 mg/kg) and in data set [2] (KSP*-IRDye800 1.08 mg/kg) was “NAD” throughout. For the same substance, the Clinical signs entry in data set [2] (KSP*-IRDye800 0.186 mg/kg), in data set [2] (KSP*-IRDye800 0.32 mg/kg) and in data set [2] (KSP*-IRDye800 1.08 mg/kg) was “NAD” in each case. The “Necropsy (days 2 and 15)” value in data set [2] (KSP*-IRDye800 0.186 mg/kg), in data set [2] (KSP*-IRDye800 0.32 mg/kg) and in data set [2] (KSP*-IRDye800 1.08 mg/kg) was “NAD” each time. The “Observe (morbidity, mortality, injury, body weights, food and water consumption)” value in data set [2] (KSP*-IRDye800 0.186 mg/kg), in data set [2] (KSP*-IRDye800 0.32 mg/kg) and in data set [2] (KSP*-IRDye800 1.08 mg/kg) was “NAD” in each case. Besides, the Urinalysis entry in data set [2] (KSP*-IRDye800 0.186 mg/kg), in data set [2] (KSP*-IRDye800 0.32 mg/kg) and in data set [2] (KSP*-IRDye800 1.08 mg/kg) was “NAD” in each case. For the same substance, the “acute adverse effects in animal pharmacology/toxicology study (GLP)” value in data set [2] (single dose oral gavage) is on record as “No acute adverse effects”. Further, in data set [3], the “abnormalities in laboratory results, urinalysis, and EKG” value is on record as “No abnormalities”. The “adverse events (AE)” value in data set [3] is “no adverse events”. Further, the Molecular in data set [4] (time 0) is 2397.6; in data set [4] (time 12), 2397.5; in data set [4] (time 24), 2397.6; in data set [4] (time 36), 2397.6. Moreover, the “Purity (HPLC)” value came out at 98.8% in data set [4] (time 0); 98.8% in data set [4] (time 6); 98.7% in data set [4] (time 12); 98.9% in data set [4] (time 18); 98.9% in data set [4] (time 24); 98.7% in data set [4] (time 30). The “Purity (HPLC)” value in data set [4] (time 36) worked out at 98.9%. The “mean (±SD) T/B ratio” value in data set [5] (HGD (n=7) and EAC (n=6)) is listed as 1.68±0.24; in data set [5] (SQ (n=3) and NDBE (n=6), topical, distal esophagus) it was 1.28±0.14. The T/B ratio in data set [5] (LGD (n=1)) was 1.14. The Accuracy in data set [5] (T/B ratio from KSP*-IRDye800 alone, HGD/EAC vs SQ/NDBE/LGD, LOOCV) was 83%. The AUC in data set [5] (T/B ratio from KSP*-IRDye800 alone, average of 1000 bootstrap samples) stood at 0.95. Moreover, the “fluorescence from regions of HGD and EAC in vivo” value in data set [6] is “Increased fluorescence intensities”.
